Reference: patent US20110039762A1, “TARGETED ANTIMICROBIAL MOIETIES” (C3 JIAN, INC., priority 2009, published 2011)
≈ marks a conversion by molar mass, not a printed value. Read-outs that look alike come from different tables or passages of the source. Bridge positions count the residues as written; N and C are the ends. Square brackets hold non-standard residues; d marks the D form. Ends that are not written are not given here. Peptide text beside a SMILES is read from it. I, II: the chains in the order shown. Aoc = NCCCCCCCC(=O)O

Assays:
[1] = test system: S. mutans; format: cell-based, Streptococcus mutans
[2] = test system: P. aeruginosa; format: cell-based, Pseudomonas aeruginosa
Protocol: (§1) Typically, the in vitro antimicrobial activity of antimicrobial agents is tested using standard NCCLS bacterial inhibition assays, or MIC tests (see, National Committee on Clinical Laboratory Standards “Performance Standards for Antimicrobial Susceptibility Testing,” NCCLS Document M100-S5 Vol. 14, No. 16, December 1994; “Methods for dilution antimicrobial susceptibility test for bacteria that grow aerobically-Third Edition,” Approved Standard M7-A3, National Committee for Clinical Standards, Villanova, Pa.).
(§2) Briefly, ˜1×10^5 cfu/mL bacteria were diluted in TH (S. mutans), or Mueller-Hinton (MH) broth (all other organisms) and distributed to 96-well plates. Serially-diluted (2-fold) peptides were then added and the plates incubated at 37° C. for 18-24 h. […] All experiments were conducted 10 times.

[3] = test system: S. epidermidis; format: cell-based, Staphylococcus epidermidis
In short: (§3)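 Broth microdilution per NCCLS: ~1×10^5 cfu/mL organisms in Mueller-Hinton broth with 2-fold serial dilutions of peptide. Incubated 37 °C for 18–24 h; MIC read as lowest inhibitory concentration, 10 replicate experiments.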

[4] = test system: E. coli; format: cell-based, Escherichia coli
Protocol: as §1, §2

[5] = test system: Klebsiella pneumoniae KAY 2026; format: cell-based
Protocol: (§4) Aerobic Gram-negative organisms were grown in Lauri-Bertaini (LB) broth and Gram-positive bacteria in Brain-heart infusion (BHI) broth. Streptococcus mutans JM11 (spectinomycin resistant, UA140 background) was grown in Todd-Hewitt (TH) broth under anaerobic conditions (80% N2, 15% CO2, 5% H2) at 37° C. Merritt et al. (2005) J Microbiol Meth., 61: 161-170. All bacteria were grown overnight to an OD600 of 0.8-1.0 prior to appropriate dilution and antimicrobial testing.
as §2

[6] = test system: Staphylococcus aureus Newmann; format: cell-based
Protocol: as §4, §2

[7] = test system: S. mutans; experiment: Post-antibiotic effect assay (growth retardation after 10 min exposure); format: cell-based, Streptococcus mutans; details: S. mutans monoculture, peptide 10 min, then fresh medium
Protocol: The activity and selectivity of MH-STAMPs after a 10 min incubation was determined by growth retardation experiments against targeted and untargeted bacteria in monocultures, as described previously (Id.). Cells from overnight cultures were diluted to ˜5×10^6 cfu/mL in MH (or TH with 1% sucrose for S. mutans), normalized by OD600 0.05-0.1 and seeded to 96-well plates. Cultures were then grown under the appropriate conditions for 2 h (3 h for S. mutans) prior to the addition of peptides for 10 min. Plates were then centrifuged at 3000×g for 5 min, the supernatants discarded, fresh medium returned (MH or TH without sucrose for S. mutans), and incubation resumed. Bacterial growth after treatment was then monitored over time by OD600.

[8] = test system: Mixed planktonic populations of P. aeruginosa, E. coli, S. epidermidis, and S. mutans; experiment: Microbial population shift assay; format: cell-based; details: 10 μM peptide, 24 h
Protocol: Peptide (10 μM) or mock-treatment (1× PBS) was then added and samples were incubated at 37° C. for 24 h under anaerobic conditions (80% N2, 15% CO2, 5% H2). […] Plates were then incubated 37° C. under aerobic conditions (TH plates were incubated anaerobically) and colonies counted after 24 h to determine survivors. […] Gram stains and direct microscopic observation (from select isolated colonies) were undertaken to confirm species identity (data not shown). The detection limit of the assay was 200 cfu/mL.

[9] = test system: MRSA; experiment: MIC (broth microdilution); format: cell-based, Methicillin-resistant Staphylococcus aureus
In short: as §3

[10] = test system: T. rubrum; experiment: MIC (broth microdilution); format: cell-based, Trichophyton rubrum
Protocol: as §1, §2

[11] = test system: A. niger; experiment: MIC (broth microdilution); format: cell-based, Aspergillus niger
Protocol: as §1, §2

[12] = test system: B. subtilis; experiment: MIC (broth microdilution); format: cell-based, Bacillus subtilis
In short: as §3

[13] = test system: C. jeikeium; experiment: MIC (broth microdilution); format: cell-based, Corynebacterium jeikeium
Protocol: as §1, §2

[14] = test system: B. subtilis; experiment: Kill or inhibit growth/proliferation; morphology, biofilm and growth disruption (Tables 5, 6); format: cell-based, Bacillus subtilis; set-up: key: A: Peptide aggregates; B: Less hyphal formation; Clumps; Diffuse clumps and small polyps; F: Diffuse growth; H: Thin; I: Growth inhibition; Microcolony formation; Rippled; Small polyps; Thick; W: Halo formation on top, microlonies on bottom
[15] = test system: C. jeikeium; experiment: as above; format: cell-based, Corynebacterium jeikeium; set-up: key: A: Peptide aggregates; B: Less hyphal formation; Clumps; Diffuse clumps and small polyps; F: Diffuse growth; H: Thin; I: Growth inhibition; Microcolony formation; Rippled; Small polyps; Thick; W: Halo formation on top, microlonies on bottom
[16] = test system: M. luteus; experiment: as above; format: cell-based, Micrococcus luteus; set-up: key: A: Peptide aggregates; B: Less hyphal formation; Clumps; Diffuse clumps and small polyps; F: Diffuse growth; H: Thin; I: Growth inhibition; Microcolony formation; Rippled; Small polyps; Thick; W: Halo formation on top, microlonies on bottom
[17] = test system: MRSA; experiment: as above; format: cell-based, Methicillin-resistant Staphylococcus aureus; set-up: key: A: Peptide aggregates; B: Less hyphal formation; Clumps; Diffuse clumps and small polyps; F: Diffuse growth; H: Thin; I: Growth inhibition; Microcolony formation; Rippled; Small polyps; Thick; W: Halo formation on top, microlonies on bottom
[18] = test system: S. epidermidis; experiment: as above; format: cell-based, Staphylococcus epidermidis; set-up: key: A: Peptide aggregates; B: Less hyphal formation; Clumps; Diffuse clumps and small polyps; F: Diffuse growth; H: Thin; I: Growth inhibition; Microcolony formation; Rippled; Small polyps; Thick; W: Halo formation on top, microlonies on bottom
[19] = test system: S. pneumoniae; experiment: as above; format: cell-based, Streptococcus pneumoniae; set-up: key: A: Peptide aggregates; B: Less hyphal formation; Clumps; Diffuse clumps and small polyps; F: Diffuse growth; H: Thin; I: Growth inhibition; Microcolony formation; Rippled; Small polyps; Thick; W: Halo formation on top, microlonies on bottom
[20] = test system: C. jejuni; experiment: as above; format: cell-based, Campylobacter jejuni; set-up: key: A: Peptide aggregates; B: Less hyphal formation; Clumps; Diffuse clumps and small polyps; F: Diffuse growth; H: Thin; I: Growth inhibition; Microcolony formation; Rippled; Small polyps; Thick; W: Halo formation on top, microlonies on bottom
[21] = test system: P. aeruginosa; experiment: as above; format: cell-based, Pseudomonas aeruginosa; set-up: key: A: Peptide aggregates; B: Less hyphal formation; Clumps; Diffuse clumps and small polyps; F: Diffuse growth; H: Thin; I: Growth inhibition; Microcolony formation; Rippled; Small polyps; Thick; W: Halo formation on top, microlonies on bottom
[22] = test system: C. albicans; experiment: as above; format: cell-based, Candida albicans; set-up: key: A: Peptide aggregates; B: Less hyphal formation; Clumps; Diffuse clumps and small polyps; F: Diffuse growth; H: Thin; I: Growth inhibition; Microcolony formation; Rippled; Small polyps; Thick; W: Halo formation on top, microlonies on bottom
[23] = test system: microorganisms; experiment: Peptides having multiple activities (targeting/binding, antimicrobial, growth or phenotype altering)
Source text: In certain embodiments, peptides described herein can have multiple activities. Thus for example, a peptide can have both binding/targeting activity and antimicrobial activity. Such peptides can be used, e.g., in a chimeric construct, for any or all of these properties. Thus, for example, a peptide designated “B” in Table 8 can be used as a targeting peptide. If it is also designated G or M it can also be used for antimicrobial activity.

[24] = test system: A. baumannii; experiment: MIC (broth microdilution); format: cell-based, Acinetobacter baumannii
Protocol: as §1, §2

[25] = test system: C. difficile; experiment: MIC (broth microdilution); format: cell-based, Clostridium difficile
Protocol: as §1, §2

[26] = test system: E. coli; experiment: Kill or inhibit growth/proliferation; morphology, biofilm and growth disruption (Tables 5, 6); format: cell-based, Escherichia coli; set-up: key: A: Peptide aggregates; B: Less hyphal formation; Clumps; Diffuse clumps and small polyps; F: Diffuse growth; H: Thin; I: Growth inhibition; Microcolony formation; Rippled; Small polyps; Thick; W: Halo formation on top, microlonies on bottom

In the case of `CC[C@H](C)[C@H](NC(=O)[C@H](Cc1ccccc1)NC(=O)CCCCCCCNC(=O)[C@H](CCCCNC(=O)CNC(=O)CNC(=O)CNC(=O)[C@H](Cc1c[nH]cn1)NC(=O)[C@H](CCCCN)NC(=O)[C@H](CCCNC(=N)N)NC(=O)[C@H](Cc1c[nH]cn1)NC(=O)[C@H](CCCCN)NC(=O)[C@H](CCCNC(=N)N)NC(=O)[C@H](Cc1c[nH]cn1)NC(=O)[C@H](CCCCN)NC(=O)[C@H](CCCNC(=N)N)NC(=O)[C@H](Cc1c[nH]cn1)NC(=O)[C@H](CCCCN)NC(=O)[C@@H](N)CCCCN)NC(=O)CNC(=O)CNC(=O)CNC(=O)[C@H](C)NC(=O)[C@H](CCC(=O)O)NC(=O)[C@H](CC(N)=O)NC(=O)[C@H](C)NC(=O)[C@H](C)NC(=O)[C@H](CC(=O)O)NC(C)=O)C(=O)N[C@@H](CCCNC(=N)N)C(=O)N[C@@H](CCCCN)C(=O)N[C@@H](Cc1ccccc1)C(=O)N[C@@H](CC(C)C)C(=O)N[C@@H](CCCCN)C(=O)N[C@@H](CCCCN)C(=O)N[C@@H](Cc1c[nH]c2ccccc12)C(=O)N[C@@H](CC(C)C)C(=O)N[C@@H](CC(C)C)C(N)=O` [BL(KH)-20] (I: Ac-DAANEAGGGK[Aoc]FIRKFLKKWLL-NH2 / II: H-KKHRKHRKHRKHGGG; amide I:10-II:C), the MIC [1] is reported as 6.25 µM (≈ 27.3 µg/mL), the MIC [2] is reported as 27.5 ± 7.90 µM (≈ 120 µg/mL) and the MIC [3] is reported as 6.25 µM (≈ 27.3 µg/mL). For the same compound, the MIC [4] was 6.25 µM (≈ 27.3 µg/mL), the MIC [5] was 6.25 µM (≈ 27.3 µg/mL) and the MIC [6] was 6.25 µM (≈ 27.3 µg/mL). The “bacterial growth (OD600) after treatment” value [7] was “not altered”, the “recoverable (surviving) cfu/mL” value ([8]; E. coli in mixed culture) was “unchanged numbers” and the “recoverable (surviving) cfu/mL” value ([8]; P. aeruginosa in mixed culture) was “not observed”. The “recoverable (surviving) cfu/mL” value ([8]; S. epidermidis in mixed culture) was “unchanged numbers” and the “recoverable (surviving) cfu/mL” value ([8]; S. mutans in mixed culture) was “higher than input cfu/mL”.
For “GSVIKKRRKRMAKKKHRKLLKKTRIQRRRAGK [PF-527]”, the MIC [2] was “P. aeruginosa, 50 μM”, the MIC [9] was “MRSA , 50 μM” and the MIC [10] was “T. rubrum, 25 μM”. The MIC [11] was “A. niger, 50 μM”, the MIC [12] was “B. subtilis, 12.5 μM” and the MIC [13] was “C. jeikeium, 6.25 μM”. For the same compound, the MIC [3] was “S. epidermidis, 25 μM”, the “Organism, effect” value [14] was “B. subtilis (I)” and the “Organism, effect” value [15] was “C. jeikeium (I)”. The “Organism, effect” value [16] was “M. luteus (S)”, the “Organism, effect” value [17] was “MRSA (I)” and the “Organism, effect” value [18] was “S. epidermidis (M)”. The “Organism, effect” value [19] was “S. pneumoniae (H)”, the “Organism, effect” value [20] was “C. jejuni (M)” and the “Organism, effect” value [21] was “P. aeruginosa (I)”. For the same compound, the “Organism, effect” value [22] was “C. albicans (B)” and the Activities [23] was “G B M”.
YIQFHLNQQPRPKVKKIKIFL-NH2 [PF-531] was tested, and the MIC ([1]; S. mutans) was “S. mutans, 12.5 μM”, the MIC ([2]; P. aeruginosa) was “P. aeruginosa, 50 μM” and the MIC [24] was “A. baumannii, 25 μM”. The MIC [10] was “T. rubrum, 50 μM”, the MIC [11] was “A. niger, 25 μM” and the MIC [12] was “B. subtilis, 25 μM”. For the same compound, the MIC [25] was “C. difficile, 12.5 μM”, the MIC [13] was “C. jeikeium, 6.25 μM” and the MIC ([3]; S. epidermidis) was “S. epidermidis, 50 μM”. The “Organism, effect” value [18] was “S. epidermidis (I)”, the “Organism, effect” value [19] was “S. pneumoniae (C)” and the “Organism, effect” value [26] was “E. coli (M)”. For the same compound, the “Organism, effect” value [21] was “P. aeruginosa (I)” and the Activities [23] was “G M”.
